Data taken from US20240262812A1, “N-SUBSTITUTED PHENYLSULFONAMIDE COMPOUND AND USE THEREOF” (Shanghai Leado Pharmatech Co., Ltd., priority 2021, published 2024).

Key:
[1] = molecular target: T1, mTRPA1 (Mus musculus, UniProt Q8BLA8); assay: IonWorks Barracuda (IWB) automated patch clamp, TRPA1 inhibitory activity; type: cell-based; settings: HEK293 cells stably expressing mTRPA1, current induced by AITC, amplitude at +100 mV; read-out: IC50 (inhibition activity on TRPA1)
T1 construct: expressed in transfected cells
T1 sequence (Q8BLA8 whole entry): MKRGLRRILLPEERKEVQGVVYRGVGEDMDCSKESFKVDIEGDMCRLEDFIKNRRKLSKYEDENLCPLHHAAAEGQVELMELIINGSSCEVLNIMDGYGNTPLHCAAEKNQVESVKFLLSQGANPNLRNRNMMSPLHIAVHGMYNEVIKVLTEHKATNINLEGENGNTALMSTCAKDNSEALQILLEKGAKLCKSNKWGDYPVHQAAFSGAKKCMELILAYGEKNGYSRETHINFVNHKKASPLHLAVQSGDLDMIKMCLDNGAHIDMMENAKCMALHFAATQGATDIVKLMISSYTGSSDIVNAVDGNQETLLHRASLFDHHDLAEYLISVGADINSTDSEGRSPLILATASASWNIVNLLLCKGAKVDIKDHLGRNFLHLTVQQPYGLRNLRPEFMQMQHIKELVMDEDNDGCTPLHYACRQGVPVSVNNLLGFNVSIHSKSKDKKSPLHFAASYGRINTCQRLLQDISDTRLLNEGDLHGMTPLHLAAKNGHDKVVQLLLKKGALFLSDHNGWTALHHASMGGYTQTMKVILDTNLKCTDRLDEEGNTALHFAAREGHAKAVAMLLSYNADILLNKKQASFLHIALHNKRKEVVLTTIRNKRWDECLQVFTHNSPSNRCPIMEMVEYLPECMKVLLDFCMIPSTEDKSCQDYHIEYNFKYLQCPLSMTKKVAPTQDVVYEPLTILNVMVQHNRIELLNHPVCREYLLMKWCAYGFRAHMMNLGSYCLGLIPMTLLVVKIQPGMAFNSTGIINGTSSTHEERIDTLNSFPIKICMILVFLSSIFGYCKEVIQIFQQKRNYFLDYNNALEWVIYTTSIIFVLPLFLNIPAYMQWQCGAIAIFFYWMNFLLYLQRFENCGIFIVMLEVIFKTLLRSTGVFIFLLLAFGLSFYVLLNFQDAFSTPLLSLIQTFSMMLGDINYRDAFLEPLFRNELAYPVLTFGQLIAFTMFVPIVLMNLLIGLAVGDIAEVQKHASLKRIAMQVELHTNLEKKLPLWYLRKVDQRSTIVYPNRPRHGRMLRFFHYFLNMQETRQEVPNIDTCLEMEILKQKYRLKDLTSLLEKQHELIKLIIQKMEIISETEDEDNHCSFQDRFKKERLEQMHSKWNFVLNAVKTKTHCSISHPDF
How it was run: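 HEK293 cells stably expressing mouse TRPA1, perforated-patch whole-cell recording (amphotericin B) on IonWorks Barracuda; holding 0 mV, −100 to +100 mV ramp over 300 ms every 10 s. Current evoked by 300 µM AITC, leak-subtracted, amplitude taken at +100 mV; IC50 from fitted dose-effect curves, HC030031 as plate reference.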

[2] = tested on: DSS induced inflammatory colitis in C57BL/6 mice; assay: DSS induced inflammatory colitis model in C57BL/6 mice; type: in vivo, mouse; settings: 10 mg/kg oral once a day, day 0 to day 7; for DAI score: FIG. 3; for length of the colorectum / weight of the colorectum: FIG. 4; for level of colorectal inflammatory factor IL-10 (ELISA) / level of colorectal inflammatory factor TNF-α (ELISA): FIG. 5
Protocol: The therapeutic effect of compounds prepared in some examples of the present invention on DSS (dextran sulfate sodium) induced inflammatory colitis in C57BL/6 mice (corresponding to ulcerative colitis) was investigated.
• Animal species and strains: C57BL/6 mice • Administration record: No administration history • Gender and weight: Female, about 18-20 g • Breeding party/supplier: Shanghai SLAC Laboratory Animal Co., Ltd • Adaptation period: 7 days • Room: SPF Rooms • Indoor temperature: 20-26° C. • Indoor relative humidity: 40-70% • Lighting: Fluorescent lighting, 12-hour illumination (08:00-20:00) and 12 hour no illumination • Animal feeding: 2-5 mice per cage (same administration group) • Food: Unlimited access to feed (disinfected by irradiation, Shanghai SLAC Laboratory Animal Co., Ltd, China) • Water: Unlimited access to drinking water (tap water purified through ultra-pure water filtration system)
A total of 80 C57BL/6 mice were purchased from Shanghai SLAC Laboratory Animal Co., Ltd, of which 10 were used as backup animals to select animals with suitable weight range included in the groups. All backup animals are not subjected to any administration or modeling procedures and will be euthanized uniformly at the end of the experiment.
70 animals were selected on Day 3 and randomly grouped based on animal weight using BioBook software to ensure that the weight values of each group of animals were similar to reduce bias.
3.1 An appropriate amount of DSS powder was dissolved in high-pressure sterilized drinking water solvent and a 3% DSS solution was prepared.
3.2 Induction of Colitis: On day 3, 70 mice were randomly divided into 7 groups according to Table 7. From day 0 to day 4, mice in groups 2 to 7 drank 3% DSS aqueous solution for 5 days, followed by drank normal water ad libitum (from day 5 to before autopsy). The day of initial administration of DSS drinking water was counted as day 0. DSS aqueous solution was wrapped in opaque dark bags to ensure light avoidance. DSS aqueous solution was replaced every 2 days.
3.3. Dosage regimen: See Table 7.
Changes in body weight, feces, and bleeding of all groups of mice were record daily. Three items were scored according to Table 8 below, and the scores were added together to form the daily disease activity index (DAI) score.
After blood collection, the animals were euthanized by inhaling excessive CO2 and dislocation of cervical vertebra. Then the abdominal cavity was cut open and the colorectum was taken out. After removing the tissue around the colon, the longitudinal length from the ileocecal valve to the anus was measured. Afterwards, the colorectum was cut open and the contents of feces were scored. Finally, the intestinal contents were cleaned, and the entire colon was photographed and weighed.
Commercially available ELISA analysis kits were used to analyze the colorectal inflammation factors TNF-α and IL-10 in each group.
The health status of animals and their comprehensive response to DSS and drugs were observed every day. Any abnormal appearance or behavior other than those related to the development of the disease was recorded in detail in the Pharmalegacy Biological Experimental Observation Form.
The data was calculated as mean±standard error. Statistical analysis was performed using Graphpad Prism and SPSS software. The specific data is presented in the form of charts. When P<0.05, it is considered statistically significant.

| IC50 [1] [µM] | SMILES | DAI score [2] | length of the colorectum [2] | weight of the colorectum [2] | level of colorectal inflammatory factor IL-10 (ELISA) [2] | level of colorectal inflammatory factor TNF-α (ELISA) [2] |
| --- | --- | --- | --- | --- | --- | --- |
| < 1 | NCc1ccc(NS(=O)(=O)c2ccsc2)c(-c2ccco2)c1 [ID-5] | significantly reduce | increase | decrease | significantly reduce | significantly reduce |
| < 1 | CNCc1ccc(NS(=O)(=O)c2ccsc2)c(-c2ccco2)c1 [IA-30] | significantly reduce | increase | decrease | significantly reduce | significantly reduce |
| < 1 | CNCc1ccc(-c2nccs2)c(NS(=O)(=O)c2ccccc2)c1 [IA-51, N-(5-((methylamino)methyl)-2-(thiazol-2-yl)phenyl)benzenesulfonamide] | significantly reduce | increase | decrease | significantly reduce | significantly reduce |
| < 1 | CNCc1ccc(-c2cc[nH]n2)c(NS(=O)(=O)c2ccccc2)c1 [IA-55, N-(5-((methylamino)methyl)-2-(1H-pyrazol-3-yl)phenyl)benzenesulfonamide] | significantly reduce | increase | decrease | significantly reduce | significantly reduce |
